“And” between values parts separate entries of the source, which are not always exact repeats. Equal entries are not always repeated. The source made the active and inactive calls. No cut-off for these calls is given here.
Tests used:
[1] = target: Cruzipain (Trypanosoma cruzi) (UniProt P25779); assay: Time dependent inhibition of recombinant Trypanosoma cruzi Cruzipain using Z-FR-AMC as substrate at 125 nM preincubated for 60 mins followed by substrate addition and measured for 45 to 60 mins by fluorescence analysis; conditions: time 105-120 min, TDE = time-dependent effect
[2] = target: Cruzipain (Trypanosoma cruzi) (UniProt P25779); assay: Reversible inhibition of recombinant Trypanosoma cruzi Cruzipain using Z-LR-AMC as substrate at 1 uM preincubated for 60 mins followed by substrate addition and measured for 45 to 60 mins by fluorescence analysis; conditions: time 105-120 min
[3] = target: Cruzipain (Trypanosoma cruzi) (UniProt P25779); assay: Inhibition of recombinant Trypanosoma cruzi Cruzipain using Z-FR-AMC as substrate at 125 to 1000 nM by fluorescence analysis; conditions: dose 125-1000 nM
[4] = target: Cruzipain (Trypanosoma cruzi) (UniProt P25779); assay: Time dependent inhibition of recombinant Trypanosoma cruzi Cruzipain using Z-FR-AMC as substrate at 1000 nM preincubated for 60 mins followed by substrate addition and measured for 45 to 60 mins by fluorescence analysis; conditions: time 105-120 min, TDE = time-dependent effect
Cruzipain [5] = target: T1, Cruzipain (Trypanosoma cruzi, UniProt P25779); assay: Inhibition of recombinant Trypanosoma cruzi Cruzipain using Z-FR-AMC as substrate preincubated for 20 mins followed by substrate addition and measured for 45 mins by fluorescence analysis
[6] = target: Cruzipain (Trypanosoma cruzi) (UniProt P25779); assay: Reversible inhibition of recombinant Trypanosoma cruzi Cruzipain using Z-LR-AMC as substrate at 10 uM preincubated for 60 mins followed by substrate addition and measured for 45 to 60 mins by fluorescence analysis; conditions: time 105-120 min
[7] = target: Cruzipain (Trypanosoma cruzi) (UniProt P25779); assay: Reversible inhibition of recombinant Trypanosoma cruzi Cruzipain using Z-LR-AMC as substrate at 25 uM preincubated for 60 mins followed by substrate addition and measured for 45 to 60 mins by fluorescence analysis; conditions: time 105-120 min
Cruzipain [8] = target: T1, Cruzipain; assay: Inhibition of recombinant Trypanosoma cruzi Cruzipain using Z-Phe-Arg-AMC as substrate preincubated for 5 mins followed by substrate addition by spectrofluorometry analysis

Sequence of Cruzipain (Trypanosoma cruzi) (P25779 123-467 limits assumed): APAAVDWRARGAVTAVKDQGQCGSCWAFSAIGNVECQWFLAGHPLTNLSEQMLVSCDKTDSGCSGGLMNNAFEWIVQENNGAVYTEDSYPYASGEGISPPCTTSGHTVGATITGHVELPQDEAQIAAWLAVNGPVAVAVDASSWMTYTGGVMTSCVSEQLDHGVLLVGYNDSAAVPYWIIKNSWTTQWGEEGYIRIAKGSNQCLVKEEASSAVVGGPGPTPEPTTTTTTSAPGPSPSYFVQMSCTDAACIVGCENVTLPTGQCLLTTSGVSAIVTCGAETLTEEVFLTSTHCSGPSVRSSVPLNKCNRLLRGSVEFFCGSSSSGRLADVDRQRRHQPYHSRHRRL
T1 sequence (P25779 whole entry): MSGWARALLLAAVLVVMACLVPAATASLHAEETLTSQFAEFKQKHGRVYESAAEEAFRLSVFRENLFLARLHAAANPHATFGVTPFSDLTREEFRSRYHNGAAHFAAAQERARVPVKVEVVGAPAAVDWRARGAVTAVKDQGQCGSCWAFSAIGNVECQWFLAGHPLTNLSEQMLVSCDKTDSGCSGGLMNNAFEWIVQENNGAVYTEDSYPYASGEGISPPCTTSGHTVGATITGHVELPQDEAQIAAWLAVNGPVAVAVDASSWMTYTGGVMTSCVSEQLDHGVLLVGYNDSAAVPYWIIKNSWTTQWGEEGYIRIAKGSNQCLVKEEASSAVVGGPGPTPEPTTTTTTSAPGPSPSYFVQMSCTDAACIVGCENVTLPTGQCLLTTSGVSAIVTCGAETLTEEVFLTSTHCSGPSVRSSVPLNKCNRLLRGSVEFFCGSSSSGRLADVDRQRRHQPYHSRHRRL

Row | SMILES | inhibition [1] | inhibition [3] | inhibition [4] | IC50 (Cruzipain [5]; read-out: IC50) | IC50 (Cruzipain [8]) | other results
1 | NC(=S)N/N=C(\CCN1CCOCC1)c1ccc(Cl)c(Cl)c1 | Tde | Dose-Dependent Effect | Tde | 3.34 nM and 8.48 nM | – | inhibition [2]: Active
2 | N/C(S)=N/N=C/c1cccc(Br)c1 | – | – | – | – | – | IC50 (Cruzipain [5]; read-out: pIC50 (converted)): 1360 nM
3 | NC(=S)N/N=C(\CCN1CCCCC1)c1ccc(Cl)c(Cl)c1 | Tde | Dose-Dependent Effect | Tde | 2.86 nM and 8.54 nM | – | inhibition [6]: Active
4 | NC(=S)N/N=C(\CCn1ccnc1)c1ccc(Cl)c(Cl)c1 | Tde | Dose-Dependent Effect | Tde | – | – | inhibition [7]: Active
5 | C/C(=N\N=C(\N)S)c1cccc(Br)c1 | – | – | – | – | 110 nM | –
6 | CC/C(=N\N=C(\N)S)c1ccc(Cl)c(Cl)c1 | – | – | – | – | 24.5 nM | –

Reference: ChEMBL document CHEMBL5325419, “Design, synthesis and biological evaluation of novel thiosemicarbazones as cruzipain inhibitors” (Eur J Med Chem, 2023)
